# Laboratory results reported in BindingDB's records for doi:10.1021/jm200293r (University of Eastern Finland, 2011).
# Molecular target: Diamine acetyltransferase 1 (Mus musculus) (UniProt P48026)
# Assay: Competitive inhibition at mouse recombinant SSAT expressed in Escherichia coli strain BL21(DE3)
# Sequence of Diamine acetyltransferase 1 (Mus musculus) (P48026 whole entry, looked up): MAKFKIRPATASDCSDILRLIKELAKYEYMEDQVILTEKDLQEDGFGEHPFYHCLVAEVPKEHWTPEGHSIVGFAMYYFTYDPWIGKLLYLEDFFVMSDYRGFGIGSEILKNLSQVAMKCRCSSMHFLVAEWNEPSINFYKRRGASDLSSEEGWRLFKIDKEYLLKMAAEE
structure (smiles),measurement,value
CC(CCN)NCCCCN (stereo unspecified),Ki,52 µM
